Biological target: MerE (Shigella flexneri, UniProt Q7AKA4)
Details: 5 uM compound, LB broth with 100 ug/mL chloramphenicol and 100 uM EDTA, 37 °C

Chain of MerE (Q7AKA4 whole entry): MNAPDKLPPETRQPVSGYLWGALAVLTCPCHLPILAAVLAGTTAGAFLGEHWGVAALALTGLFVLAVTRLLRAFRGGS

In the case of `[CH3][Hg][Cl]` [CH3Hg(I)], the “uptake of 14C-labelled compound by E. coli XL1-Blue cells, filtration and scinti” value is reported as “cells with pE4 took up significantly more CH3Hg(I) than control cells”.

— article PMC5715351, “Cysteine and histidine residues are involved in Escherichia coli Tn21 MerE methylmercury transport” (FEBS Open Bio, 2017)
